Test results as given in patent US7179808B2 (Janssen Pharmaceutica N.V., priority 2002, dated 2007).
Counter-ions that a name gives are not always drawn.

Legend:
[1] = biological target: T1, NADPH-oxidase (Homo sapiens, UniProt P04839); assay: Oxidase Inhibition Assay (PMA-stimulated superoxide-mediated reduction of Cytochrome c, absorbance at 550 nm); assay type: cell-based; settings: for IC50: human neutrophils, 0.5 μM PMA, Cytochrome c reduction at 550 nm
T1 construct: endogenous in cells; host or cells: human neutrophils isolated from the buffy coat of one unit of blood
T1 sequence (P04839 1-570): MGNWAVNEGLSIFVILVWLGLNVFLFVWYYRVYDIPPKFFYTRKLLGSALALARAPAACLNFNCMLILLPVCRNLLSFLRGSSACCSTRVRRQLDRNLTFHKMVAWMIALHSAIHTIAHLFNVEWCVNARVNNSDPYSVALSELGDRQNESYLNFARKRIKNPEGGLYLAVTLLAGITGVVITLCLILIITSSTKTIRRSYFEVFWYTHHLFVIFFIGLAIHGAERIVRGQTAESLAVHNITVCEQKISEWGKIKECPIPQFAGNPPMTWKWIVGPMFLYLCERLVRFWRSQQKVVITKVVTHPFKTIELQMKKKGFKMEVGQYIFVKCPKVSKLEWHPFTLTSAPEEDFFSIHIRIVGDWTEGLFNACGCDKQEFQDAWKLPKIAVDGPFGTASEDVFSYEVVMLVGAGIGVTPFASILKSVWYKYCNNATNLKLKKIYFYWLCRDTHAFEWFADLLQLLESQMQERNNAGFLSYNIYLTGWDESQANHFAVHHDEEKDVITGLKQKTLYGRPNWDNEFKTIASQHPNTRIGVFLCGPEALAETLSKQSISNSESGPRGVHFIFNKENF
T1 sequence (P13498 1-195 partner): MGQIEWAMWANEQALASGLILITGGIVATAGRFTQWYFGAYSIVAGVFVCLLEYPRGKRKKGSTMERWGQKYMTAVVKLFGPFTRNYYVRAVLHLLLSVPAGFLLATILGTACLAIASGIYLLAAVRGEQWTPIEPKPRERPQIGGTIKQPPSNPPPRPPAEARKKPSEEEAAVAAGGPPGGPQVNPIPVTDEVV
Experimental: Whole cells (human neutrophils) are incubated with a pro-inflammatory agonist phorbol myristate acetate (PMA) in the presence or absence of test compound to measure the superoxide-mediated reduction of Cytochrome c at 550 nm. Inhibition of the oxidase is determined by a decreased absorbance at 550 nm, in response to test compound, relative to the absorbance seen with a vehicle control.
The buffy coat from one unit of blood is split evenly into four 50 mL tubes. To each tube 30 mL 3% Dextran (in 0.9% NaCl) is added and the tubes are inverted to mix. Tubes are allowed to sit undisturbed for 25 minutes. The resulting supernatant is recovered into four fresh tubes and centrifuged for 10 minutes at 600×g, 4° C. The supernatant is discarded and pellets are resuspended in 35 mL 0.9% saline. 10 mL Ficoll-Paque PLUS (Pharmacia Biotech AB) is layered beneath the cell suspension and centrifuged at 600×g for 40 minutes at room temperature. The supernatant is again discarded and tubes are tapped to loosen the resulting pellets. 20 mL 0.2% ice cold saline is added for 30 seconds followed by 20 mL 1.6% ice cold saline to lyse the remaining erythrocytes in the pellets. The pellets are centrifuged for 10 minutes at 600×g, 4° C., and the supernatant is discarded. The neutrophil pellets are resuspended in HBSS-glucose buffer (1 mg/mL), adding 2.5 mL to each tube for a total volume of 10 mL. The cell suspension is then counted on a hemocytometer.
The cell suspension is diluted to a concentration of 5×10^6/mL in HBSS-glucose and treated with 1 μg/mL Cytochalasin B (5 mg/mL DMSO) for 10 minutes at 37° C. in a shaking water bath. Cells are diluted to 6×10^5 cells/mL in 92 μM Cytochrome c for a final concentration of 5×10^4 cells/well.
The NADPH-oxidase assay is run on a Biomek 2000 workstation. The workstation adds 2.5 μl compound per well from source plates plus 12.5 μL per well 4 μM PMA (agonist). This volume is brought up to 100 μL total per well in the assay plates upon the addition of the prepared cells (85 μL). The final concentration of drug is 25 μM and PMA is 0.5 μM under these conditions.
The QC curve is a dose-responsive curve (from about 31.25 nM to about 4000 nM) for competitive binding against a known oxidase inhibitor such as DPI (diphenylene iodonium chloride). The following format was used for each compound tested:
The plates are incubated for 1 hour at 37° C. without CO2. The plates are then incubated at room temperature for 30 minutes and the absorbance is read at 550 nm.

[2] = test system: mice with potassium peroxochromate arthritis; settings: cited from earlier work
[3] = test system: ROS; settings: human patients with rheumatoid arthritis and osteoarthritis, pharmacological doses; cited from earlier work

Compound	IC50 [1] [nM]	melting point [°C]	other results
CC(C)CNCc1cccc(OCc2nc(-c3ccc(Cl)cc3)cs2)c1	2500		
4-(4-chlorophenyl)-2-[[3-[(5-methyl-2-furanyl)methyl]phenoxy]methyl]-thiazole [Cpd 8]	700		
CCCNCc1cccc(OCc2nc(-c3ccc(Cl)cc3)cs2)c1 [Cpd 1, 3-[[4-(4-chlorophenyl)-2-thiazolyl]methoxy]-N-propyl-benzenemethanamine]	1650	63.5 to 64.5	
CN1CCCC1CNCc1cccc(OCc2nc(-c3ccc(Cl)cc3)cs2)c1 (centres unmarked) [Cpd 6, N-[[3-[[4-(4-chlorophenyl)-2-thiazolyl]methoxy]phenyl]methyl]-1-methyl-2-pyrrolidinemethanamine.(HCl)2]	10000		
c1ccc2c(c1)[I+]c1ccccc1-2 [DPI, diphenylene iodoniumchloride]			inhibition of the arthritis ([2]; 10 mmol/kg): Complete inhibition; inhibited the arthritis ([2]; daily doses of 2.8 μmol/kg): 50%; inhibition at 10 µM ([1]; QC wells G–H, 2.5 μL of 10 μM DPI, at 250 nm (so in the source), agonist added): ~70%
CN1C(C(=O)Nc2ccccn2)=C(O)c2ccccc2S1(=O)=O [Piroxicam]			reduce levels of ROS [3]: 25%

Continued, in another order:

IC50 [1] [nM]	melting point [°C]	Compound	other results
	63.5 to 64.5	CCCNCc1ccc(OCc2nc(-c3ccc(Cl)cc3)cs2)cc1 [Cpd 1a, 4-[[4-(4-chlorophenyl)-2-thiazolyl]methoxy]-N-propyl-benzenemethanamine]	
	86 to 88	CCCCNCc1cccc(OCc2nc(-c3ccc(Cl)cc3)cs2)c1 [Cpd 2, 3-[[4-(4-chlorophenyl)-2-thiazolyl]methoxy]-N-(3-methylpropyl)-benzenemethanamine]	
40	94 to 94.5	Clc1ccc(-c2csc(COc3cccc(CNC4CCCC4)c3)n2)cc1 [Cpd 3, 3-[[4-(4-chlorophenyl)-2-thiazolyl]methoxy]-N-cyclopentyl-benzenemethanamine]	
130	85 to 86	Clc1ccc(-c2csc(COc3cccc(CNC4CCCCC4)c3)n2)cc1 [Cpd 4, 3-[[4-(4-chlorophenyl)-2-thiazolyl]methoxy]-N-cyclohexyl-benzenemethanamine]	
3450	80.5 to 81.5	Clc1ccc(-c2csc(COc3cccc(CNC4CC4)c3)n2)cc1 [Cpd 5, 3-[[4-(4-chlorophenyl)-2-thiazolyl]methoxy]-N-cyclopropyl-benzenemethanamine]	
1470		Clc1ccc(-c2csc(COc3cccc(CNCCN4CCOCC4)c3)n2)cc1 [Cpd 7]	
300		COc1ccc2[nH]cc(CCNCc3cccc(OCc4nc(-c5ccc(Cl)cc5)cs4)c3)c2c1 [Cpd 9, N-[[3-[[4-(4-chlorophenyl)-2-thiazolyl]methoxy]phenyl]methyl]-5-methoxy-1H-indole-3-ethanamine.HCl]	
700	125.5 to 126.5	Clc1ccc(-c2csc(COc3ccc(CNC4CCCC4)cc3)n2)cc1 [Cpd 10, 4-[[4-(4-chlorophenyl)-2-thiazolyl]methoxy]-N-cyclopentyl-benzenemethanamine]	
1900	117 to 118.5	NCc1cccc(OCc2nc(-c3ccc(Cl)cc3)cs2)c1 [Cpd 11, 3-[[4-(4-chlorophenyl)-2-thiazolyl]methoxy]-benzenemethanamine]	
